Laboratory results as given in patent US10935544B2, “Glycan arrays and method of use” (OBI Pharma, Inc., priority 2015, dated 2021).

Key:
VK9 = assay: ELISA binding of VK9 to plate-coated Globo H-ceramide and Globo H-lipids; conditions: glycan immobilized on microtiter plate from 0.001 to 10 μg/mL; FIG. 8A
Protocol: Enzyme-linked immunosorbent assay. Clear Flat-Bottom Immuno Nonsterile 96-Well Plates (Thermo Fisher Scientific Inc., Cat#442404)) were coated with the respective glycan-linked glycopeptides at 0.2 μg to 50 μL ethanol per well and were incubated at room temperature overnight. Then 100 μL Casein Blocking Buffer (Sigma-Aldrich Co. LLC, Cat#B6429) was added to each well and the microtiter plate was incubated at room temperature for 30 minutes. All subsequent steps were performed at room temperature.
The microtiter plate was treated with 50 μL of different dilutions of VK9 cells in Casein Blocking Buffer to each well and incubated at room temperature for 1 hr. The wells were then washed three times with Phosphate-buffered saline (Thermo Fisher Scientific Inc., Cat#70011) plus 0.05% (vol/vol) Tween 20 (J. T. Baker, Cat#JTB-X251-07) using a microplate washer (SkanWash 400, Molecular Devices LLC.). […]
The microtiter plate was treated with 100 μL of Alkaline Phosphatase (pNPP) Yellow Liquid Substrate System for ELISA (Sigma-Aldrich Co. LLC., Cat#P7998) at 37° C. for 20 minutes and the reaction was stopped by adding another 50 μL of Stop Solution (3N NaOH). The bound VK9 cells were visualized monitored at 405 nm using a microplate reader (SpectraMax M2, Molecular Devices LLC.). […]

Human IgM [1] = assay: Glycan array analysis (secondary test), relative anti-glycan Human IgM, pancreatic cancer; type: binding
Protocol: The reagents, equipment and assay procedures were totally the same as primary test. However, the intensity of array was converted into “Ab level (μg/mL)” based on following calculation which is relative to Anti-human Globo H IgG.
The internal curve of each chip was using linear regression to calculate slope and intercept. In certain examples, the Ab level (μg/mL)=[(raw data-intercept)/slope]×0.1. The internal curve was performed using 0.0625, 0.125, 0.25, 0.5, 0.75, and 1 μg/mL of human IgM.
Relative Anti-glycan Human IgM: There were total 277 clinical samples (108 pancreatic cancer and 169 healthy serum) performed using Globo H-lipid 1 and SSEA-4-lipid 1 immobilized arrays. The median values of Globo H-lipid 1 IgM test were 0.32 (pancreatic cancer) and 0.25 (healthy) [FIG. 11A]. The median values of SSEA-4-lipid 1 IgM test were 0.12 (pancreatic cancer) and 0.08 (healthy) [FIG. 11B].

Human IgG = assay: Glycan array analysis (primary test), glycan score of Human IgG; type: binding
Text: (§1) This testing platform utilized Agnitio BioIC system which performed an automatically ELISA reaction within a microfluidic cartridge. Each cartridge contained an array of microfluidic pumps and valves, a channel network, reagent storage reservoirs, a glycan array reaction zone, and a waste storage reservoir. To perform the test, all reagent and test sample were pumped sequentially, from their respected reservoirs in to a reaction zone containing the glycan microarray in order to carry out a multiplexed ELISA reaction with chemical luminescence. The result data was captured simultaneously and data analysis was performed by the LabIT software provided by Agnitio Science and Technology Inc. The specification of equipment list of Agnitio BioIC system is listed in Table 2.
The Microfluidic cartridge was manufactured at Agnitio Science and Technology Inc. The microfluidic cartridge was composed by three layers shown in FIG. 9. The upper layer contained serum and reagents reservoirs, microfluidic pumps, and ELISA channel network. […]
(§2) The glycan array was put on the Agnitio BioIC Pumping Machine for pressurizing 30 minutes. The bound serum was visualized monitored using Agnitio BioIC Analyzer. The absorbance intensity of array was converted into “Glycan Scores” based on the following calculation: In certain examples, glycan scores=(raw data−background)/Internal Control×10. […]

Human IgM [2] = assay: Glycan array analysis (primary test), glycan score of Human IgM; type: binding
Text: as §1
The Microfluidic cartridge was manufactured at Agnitio Science and Technology Inc. The microfluidic cartridge was composed by three layers shown in FIG. 9. The upper layer contained serum and reagents reservoirs, microfluidic pumps, and ELISA channel network. The rubber middle layer contained a coated nitrocellulose membrane. The glycan antigens (Globo H-ceramide and Globo H-lipid 1) were immobilized onto the nitrocellulose membrane via hydrophobic interactions. The bottom layer contained a tank as for the waste reservoir. There were one hundred and twenty spots for original array layout design. In order to ensure the spot-to-spot coefficient of variation (CV) was lower than 15%, we only used central sixty-four spots for following clinical sample test.
Reagent preparation: Sixty-six microliter Normal Human Serum (NETS) or pancreatic cancer patient's serum was added in 594 μL Sample Diluent Buffer (BioCheck Inc., Cat#MB 10175) to form ten-fold dilution. The Secondary Antibody Solution was performed by first adding 2 μL Horseradish peroxidase (HRP)-conjugated goat anti-human IgG (KPL Inc., Cat#474-1002)/IgM (KPL Inc., Cat#474-1003) in 98 μL Conjugate Buffer (SuperBlock (TBS) Blocking Buffer plus 0.2% Tween 20, Thermo Fisher Scientific Inc., Cat#37535) to form fifty-fold dilution. Next, 40 μL diluted solution was pumped into 2360 μL Conjugate Buffer to form the Secondary Antibody Solution (3000× diluted).
Assay procedure: Six hundred and twenty microliter Wash Buffer (Phosphate-buffered saline (Thermo Fisher Scientific Inc., Cat#70011) plus 0.2% (vol/vol) Tween 20 (J. T. Baker, Cat#JTB-X251-07)) was added in the “Wash” hole of array. […]
as §2

IgM = assay: Sugar array IgM binding with pancreatic cancer and healthy clinical samples; design: species or system human
Protocol: The Globo H lipid 1, Globo H lipid 2, and Globo H-ceramide were immobilized on microtiter plate from 0.001 to 10 μg/mL, separately. […] In addition, the comparison of IgM binding patterns of Globo H-ceramide, Globo H-lipid 1, and Globo H-lipid 2 using sugar array was listed in FIG. 8B. […] In some embodiments the complex binding agent may comprise any of the complex binding agents or detectable labels of this disclosure. In certain exemplary embodiments, the Globo H ceramide and Globo H lipids are the array elements and the IgM antibodies are from the sample. And then secondary labeled anti-human ab are used to detect the complexes

optical density at 405 nm (OD405) (VK9) | Mean (IgM) Healthy (n = 100) (IgM; healthy samples) | Mean (IgM) Pancreatic cancer (n = 115) (IgM; pancreatic cancer samples) | Compound | median Ab level, IgM test (Human IgM [1]; healthy serum) | median Ab level, IgM test (Human IgM [1]; pancreatic cancer serum) | median glycan score, IgG test (Human IgG; healthy serum) | median glycan score, IgG test (Human IgG; pancreatic cancer serum) | median glycan score, IgM test (Human IgM [2]; healthy serum) | median glycan score, IgM test (Human IgM [2]; pancreatic cancer serum)
higher than Globo H-ceramide | – | – | CCCCCCCCCCCCCCCCOC[C@@H](COC(=O)CCCC(=O)NCCCCCO[C@H]1OC(CO)[C@@H](O[C@@H]2OC(CO)[C@H](O[C@H]3OC(CO)[C@H](O)C(O[C@@H]4OC(CO)[C@H](O)C(O[C@@H]5OC(CO)[C@H](O)C(O)C5O[C@@H]5OC(C)[C@@H](O)C(O)C5O)C4NC(C)=O)C3O)C(O)C2O)C(O)C1O)OCCCCCCCCCCCCCCCC (stereo partly shown) [Globo H-lipid 2] | – | – | – | – | – | –
– | – | – | CCCCCCCCCCCCCCCCOC[C@@H](OCCCCCCCCCCCCCCCC)C(=O)NCCCCCO[C@@H]1O[C@H](CO)[C@@H](O[C@@H]2O[C@H](CO)[C@H](O[C@H]3O[C@H](CO)[C@H](O)[C@H](O[C@@H]4O[C@H](CO)[C@H](O)[C@H](O[C@@H]5O[C@H](CO)[C@H](O)[C@H](O[C@]6(C(=O)O)C[C@H](O)[C@@H](NC(C)=O)[C@H]([C@H](O)[C@H](O)CO)O6)[C@H]5O)[C@H]4NC(C)=O)[C@H]3O)[C@H](O)[C@H]2O)[C@H](O)[C@H]1O [SSEA-4-lipid 1] | 0.08 µg/mL | 0.12 µg/mL | – | – | – | –
– | – | – | CCCCCCCCCCCCCCCCOCC(OCCCCCCCCCCCCCCCC)C(=O)NCCCCCO[C@H]1OC(CO)[C@@H](O[C@@H]2OC(CO)[C@H](O[C@H]3OC(CO)[C@H](O)C(O[C@@H]4OC(CO)[C@H](O)C(O[C@@H]5OC(CO)[C@H](O)C(O)C5O[C@@H]5OC(C)[C@@H](O)C(O)C5O)C4NC(C)=O)C3O)C(O)C2O)C(O)C1O (stereo partly shown) [Globo H-lipid 1] | 0.25 µg/mL | 0.32 µg/mL | 0.12 | 0.54 | 2.56 | 6.64
– | 1977.88 | 3130.03 | Globo H-ceramide [reference compound] | – | – | – | – | 1.57 | 2.53
